In PubChem BioAssay (NCI) one finds GI50 and TGI data, which are given here for 7 compounds.

Test systems include A498 renal; SN12C renal; SF-295 CNS; CCRF-CEM leukemia; TK-10 renal; SK-OV-3 ovarian; HOP-62 NSCLC; EKVX NSCLC; DU-145 prostate; CAKI-1 renal.
Test in all cases: NCI anticancer screen, dose series, 48 h

Values joined by “and” are separate entries in the source; they are usually repeats but may differ in a detail not shown here. Equal entries are not always repeated.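 Values below derive from 48-hour exposures of cells grown in 96-well plates, with endpoints linearly interpolated between the two concentrations bracketing the appropriate inhibition level. GI50 = concentration required for 50% inhibition of growth. TGI: total growth inhibition.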

As for `N#CC(C#N)=Cc1c(-c2ccccc2)[nH]c2ccccc12`, the GI50 is 2.97 µM in the assay on A498 renal; 5.82 µM in the assay on SN12C renal; 1.59 µM with SF-295 CNS; 2.41 µM in the assay on CCRF-CEM leukemia; 5.23 µM in the assay with TK-10 renal; 5.57 µM in the assay on SK-OV-3 ovarian. The GI50 in the assay on HOP-62 NSCLC was 11.2 µM; with EKVX NSCLC, 5.81 µM; with DU-145 prostate, 3.2 µM; in the assay on CAKI-1 renal, 5.66 µM. The TGI is 22.4 µM with A498 renal; above 73.3 µM in the assay with SN12C renal; 15.5 µM in the assay on SF-295 CNS; 43.8 µM in the assay with CCRF-CEM leukemia; above 75.1 µM in the assay with TK-10 renal; above 80.7 µM in the assay with SK-OV-3 ovarian. Also, the TGI with HOP-62 NSCLC is 55.2 µM; in the assay with EKVX NSCLC, above 86.4 µM; in the assay on DU-145 prostate, 17.9 µM; in the assay with CAKI-1 renal, 48.7 µM.
In the case of `CC[C@@]1(OC(=O)CN)C(=O)OCc2c1cc1n(c2=O)Cc2cc3cc4c(cc3nc2-1)OCO4`, the GI50 in the assay on A498 renal was below 0.01 µM; in the assay on SN12C renal, below 0.01 µM; with SF-295 CNS, below 0.01 µM; in the assay with CCRF-CEM leukemia, below 0.01 µM; in the assay with TK-10 renal it was 0.108 µM; with SK-OV-3 ovarian, below 0.01 µM. Besides, the GI50 with HOP-62 NSCLC was below 0.01 µM; in the assay with EKVX NSCLC, 0.0735 µM; with DU-145 prostate, below 0.01 µM; in the assay with CAKI-1 renal, below 0.01 µM. In addition, the TGI in the assay with A498 renal was 0.126 µM; in the assay with SN12C renal it was 0.563 µM; in the assay on SF-295 CNS, below 0.01 µM; in the assay with TK-10 renal it was 9.21 µM; in the assay with SK-OV-3 ovarian, 0.0736 µM; in the assay on HOP-62 NSCLC, below 0.0495 µM. Besides, the TGI in the assay with EKVX NSCLC was above 100 µM; in the assay with DU-145 prostate it was below 0.012 µM.
For the compound `CC(=O)Nc1ccc(-c2c3nc(c(-c4cc5ccccc5[n+](C)c4)c4ccc([nH]4)c(-c4ccc(NC(C)=O)cc4)c4nc(c(-c5cc6ccccc6[n+](C)c5)c5ccc2[nH]5)C=C4)C=C3)cc1`, the GI50 is 5.16 µM in the assay with A498 renal; 7.09 µM with SN12C renal; 6.65 µM with SF-295 CNS; 0.721 µM with CCRF-CEM leukemia; 15.2 µM in the assay with TK-10 renal; 11.1 µM in the assay on SK-OV-3 ovarian. The GI50 with HOP-62 NSCLC is 7.3 µM; in the assay on EKVX NSCLC it was 9.09 µM; in the assay with DU-145 prostate it was 5.93 µM; in the assay with CAKI-1 renal, 4.81 µM. Besides, the TGI in the assay on A498 renal is 36.2 µM; in the assay on SN12C renal, 23.2 µM; in the assay on SF-295 CNS it was 22.5 µM; in the assay on CCRF-CEM leukemia, above 50 µM; with TK-10 renal, 44.6 µM; in the assay on SK-OV-3 ovarian, 35.6 µM. Further, the TGI turned out to be 19.5 µM with HOP-62 NSCLC, 31.6 µM in the assay on EKVX NSCLC, 17.1 µM in the assay on DU-145 prostate and 29.7 µM in the assay on CAKI-1 renal.
As to `O=C(/C=C/c1ccccc1)c1c[nH]c2ccccc2c1=O`, the GI50 with A498 renal was 2.3 µM; with SN12C renal, 3.54 µM; in the assay on SF-295 CNS, 2.31 µM; in the assay with CCRF-CEM leukemia, 2.88 µM; in the assay on TK-10 renal, 2.08 µM; in the assay on SK-OV-3 ovarian it was 2.53 µM. For the same compound, the GI50 in the assay with HOP-62 NSCLC is 3.5 µM; in the assay with EKVX NSCLC it was 3.95 µM; with DU-145 prostate it was 1.57 µM; in the assay on CAKI-1 renal it was 1.97 µM. Besides, the TGI with A498 renal came out at 10.3 µM; with SN12C renal it was 15.5 µM; in the assay with SF-295 CNS, 7.18 µM; in the assay with CCRF-CEM leukemia, 9.97 µM; in the assay with TK-10 renal, 5.37 µM; in the assay on SK-OV-3 ovarian, 6.82 µM. Besides, the TGI in the assay with HOP-62 NSCLC came out at 12.2 µM; with EKVX NSCLC, 20.1 µM; in the assay on DU-145 prostate, 6.34 µM; in the assay with CAKI-1 renal, 6.22 µM.
As for `CC(N=C(N)N)C(=O)O` (centres undefined), the TGI with A498 renal, in the assay on SN12C renal, in the assay with SF-295 CNS, in the assay with CCRF-CEM leukemia, in the assay on TK-10 renal and in the assay with SK-OV-3 ovarian was above 100 µM in each case. The TGI with HOP-62 NSCLC, in the assay on EKVX NSCLC, with DU-145 prostate and in the assay on CAKI-1 renal was above 100 µM in each case.
As for `O=S(=O)(Nc1cc(Br)c(O)c2ccccc12)c1ccc(F)cc1`, the GI50 is 17.3 µM in the assay with A498 renal; 2.04 µM in the assay with SN12C renal; 15.7 µM with SF-295 CNS; 0.76 µM with CCRF-CEM leukemia; 18.4 µM in the assay with TK-10 renal; 14.7 µM in the assay on SK-OV-3 ovarian. Also, the GI50 in the assay on HOP-62 NSCLC is 3.58 µM; with EKVX NSCLC it was 2.64 µM; with DU-145 prostate, 1.83 µM; in the assay with CAKI-1 renal, 7.7 µM. In addition, the TGI came out at 33.3 µM with A498 renal; 4.36 µM in the assay with SN12C renal; 29.7 µM in the assay on SF-295 CNS; 8.29 µM in the assay with CCRF-CEM leukemia; 32.7 µM in the assay on TK-10 renal; 35.9 µM in the assay with SK-OV-3 ovarian. For the same compound, the TGI in the assay with HOP-62 NSCLC amounted to 18.5 µM; in the assay on EKVX NSCLC, 7.52 µM; in the assay on DU-145 prostate, 3.32 µM; in the assay with CAKI-1 renal it was 20.5 µM.
For the compound `COC(=O)CCC(C)[C@H]1CCC2C3C(C[C@H](OC(C)=O)[C@@]21C)[C@@]1(C)CCC2(C[C@H]1C[C@H]3OC(C)=O)OOC1(CCC(C)CC1)OO2` (some centres undefined), the TGI with A498 renal, with SN12C renal, in the assay on SF-295 CNS, in the assay on CCRF-CEM leukemia, with TK-10 renal and in the assay with SK-OV-3 ovarian was above 100 µM each time. In addition, the TGI is 6.4 µM and 28.4 µM in the assay with HOP-62 NSCLC; 21.5 µM and 52.4 µM with EKVX NSCLC; above 100 µM with DU-145 prostate; above 100 µM in the assay on CAKI-1 renal. Besides, the GI50 was > 100 µM and 47.1 µM in the assay with SF-295 CNS; 10.8 µM and > 100 µM in the assay with TK-10 renal; 2.06 µM and 8.76 µM with HOP-62 NSCLC; 3.79 µM and 10.1 µM in the assay on EKVX NSCLC; > 100 µM and 27.8 µM in the assay with DU-145 prostate; 5.26 µM and 15.8 µM in the assay with CAKI-1 renal.
